Data on 40 molecules can be found in ChEMBL document CHEMBL1123144, “Studies on 4(1H)-quinazolinones. 5. Synthesis and antiinflammatory activity of 4(1H)-quinazolinone derivatives” (J Med Chem, 1985).

For data set [1], the system named is Rattus norvegicus. The data set is described as follows: Percent inhibition against carrageenan-induced rat paw edema at 50 mg/kg dose administered perorally; 31-40%. Type of data set: functional. The following applies: route oral. A general note: Carrageenan injected into the paw causes an acute inflammation.
Data set [2] has as its system Mus musculus. Kind of data set: Number of mice bearing ulcer at dose 45 mg/kg out of 5 mices tested. Type of data set: functional.
Data set [3] deals with Mus musculus. The data set is described as follows: Ulcer index by number of mice bearing ulcer at dose 45 mg/kg out of 5 mice tested. Type of data set: functional.
Data set [4] concerns Mus musculus. The data set is described as follows: Toxicity by number of mice dead at dose 500 mg/kg out of 5 mice tested by oral administration route; Value represented as 5/5. Type of data set: organism-based. Also noted: dose 500 mg/kg, route oral. To be noted: in vivo.
Data set [5] has as its system Rattus norvegicus. The data set is described as follows: Analgesic activity by oral administration route. Type of data set: functional.
Data set [6] concerns Rattus norvegicus. The data set is described as follows: Anti-inflammatory activity following oral administration. Type of data set: functional.
The subject of data set [7] is Rattus norvegicus. The data set is described as follows: Percent inhibition against carrageenan-induced rat paw edema at 50 mg/kg dose administered perorally; 41-50%. Type of data set: functional. The following applies: route oral.
Data set [8] relates to Rattus norvegicus. The data set is described as follows: Percent inhibition against carrageenan-induced rat paw edema at 50 mg/kg dose administered perorally. The following applies: route oral. Type of data set: functional.
In data set [9] the test system is Rattus norvegicus. The data set is described as follows: Analgesic activity following oral administration at a dose 30 mg/kg. Type of data set: functional.
The test system of data set [10] is Rattus norvegicus. The data set is described as follows: Percent inhibition against carrageenan-induced rat paw edema at 50 mg/kg dose administered perorally; 21-30%. Type of data set: functional. The following applies: route oral.
Data set [11] deals with Mus musculus. Kind of data set: Number of mice bearing ulcer at dose 48 mg/kg out of 5 mices tested. Type of data set: functional.
For data set [12], the system named is Mus musculus. Kind of data set: Ulcer index by number of mice bearing ulcer at dose 48 mg/kg out of 5 mice tested. Type of data set: functional.
Data set [13] concerns Mus musculus. The data set is described as follows: Toxicity by number of mice dead at dose 500 mg/kg out of 5 mice tested by oral administration route; Value represented as 0/5. Type of data set: organism-based. To be noted: in vivo. Set-up: dose 500 mg/kg, route oral.
Data set [14] has as its system Rattus norvegicus. The data set is described as follows: Analgesic activity by oral administration of 200 mg/kg; Not effective. Type of data set: functional, organism-based. Also noted: dose 200 mg/kg.
The test system of data set [15] is Rattus norvegicus. Kind of data set: Percent inhibition against carrageenan-induced rat paw edema at 50 mg/kg dose administered perorally; 11-20%. Type of data set: functional. To be noted: route oral.
Data set [16] relates to Mus musculus. The data set is described as follows: Number of mice bearing ulcer at dose 30 mg/kg out of 5 mices tested. Type of data set: functional.
Data set [17] concerns Mus musculus. The data set is described as follows: Ulcer index by number of mice bearing ulcer at dose 30 mg/kg out of 5 mice tested. Type of data set: functional.
The subject of data set [18] is Mus musculus. The data set is described as follows: Number of mice bearing ulcer at dose 60 mg/kg out of 5 mices tested. Type of data set: functional.
The subject of data set [19] is Mus musculus. Kind of data set: Ulcer index by number of mice bearing ulcer at dose 60 mg/kg out of 5 mice tested. Type of data set: functional.
Data set [20] deals with Mus musculus. Kind of data set: Toxicity by number of mice dead at dose 500 mg/kg out of 5 mice tested by oral administration route; Value represented as 1/5. Type of data set: organism-based. Also noted: dose 500 mg/kg, route oral. To be noted: in vivo.

The source made the active and inactive calls. The calls are words filed in the database; no cut-off is given here.

As usually defined, the inhibition in vivo is the share of the control response that was lost under treatment. Lower therefore signals a weak effect. `CC(C)n1c(-c2ccccc2)nc(=O)c2cc(F)ccc21` returned an inhibition in vivo at 50 mg/kg in [1] of 40%.

In [2], `CC(C)n1c(-c2ccc(Cl)cc2)nc(=O)c2ccccc21` registered a No. of mice of 0. In [3], the “Ulcer Index” value stood at 0. This molecule had a Toxicity in [4] of 5. Moreover, the ED30 in [5] came to 44 mg/kg; in data set [6], 15 mg/kg. For the same molecule, the inhibition in vivo at 50 mg/kg in data set [7] came out at 50%.

Turning to `O=c1nc(C2CC2)n(-c2ccccc2)c2ccccc12`, the inhibition in vivo at 50 mg/kg in data set [8] was no less than 51%.

With `CC(C)c1nc(=O)c2ccccc2n1-c1ccccc1`, the ED30 in data set [9] stood at 70 mg/kg; in data set [6] it was 30 mg/kg. The inhibition in vivo at 50 mg/kg in [1] amounted to 40%.

For the molecule `CC(C)n1c(-c2ccc(F)cc2)nc(=O)c2cc(Cl)ccc21`, the ED30 in [5] is 100 mg/kg; in [6], 18 mg/kg. This molecule had an inhibition in vivo at 50 mg/kg in [7] of 50%.

Molecule `CC(C)n1c(-c2ccc(Br)cc2)nc(=O)c2ccccc21` came in with an inhibition in vivo at 50 mg/kg in [7] of 50%.

Turning to `O=c1nc(C2CCC2)n(-c2ccc(Cl)cc2)c2ccccc12`, 50 mg/kg produced 30% inhibition in vivo in data set [10].

In data set [7], `CC(C)n1c(-c2ccccc2Cl)nc(=O)c2cc(Cl)ccc21` returned an inhibition in vivo at 50 mg/kg of 50%.

In turn, `CC(C)n1c(-c2ccccc2)nc(=O)c2ccc(Cl)cc21` came in with a No. of mice in data set [11] of 3. In addition, in data set [12], the “Ulcer Index” value is 0.2. Further, the Toxicity in [13] worked out at 0. Besides, in data set [14], the ED30 result is “inactive”. Besides, the ED30 in data set [6] is 16 mg/kg. Moreover, the inhibition in vivo at 50 mg/kg in [7] turned out to be 50%.

In [10], `CC(C)n1c(-c2ccc(Cl)cc2)nc(=O)c2ccc(Cl)cc21` had an inhibition in vivo at 50 mg/kg of 30%.

Molecule `CC(C)c1nc(=O)c2ccccc2n1-c1ccc(CC(=O)O)cc1` gave an inhibition in vivo at 50 mg/kg in [15] of 20%.

As to `CC(C)c1nc(=O)c2ccc(Cl)cc2n1-c1ccccc1`, the ED30 in [5] was 80 mg/kg; in [6], 21 mg/kg. This molecule also showed an inhibition in vivo at 50 mg/kg in data set [8] of no less than 51%.

Take `CC(C)n1c(-c2ccc(Cl)c(Cl)c2)nc(=O)c2ccccc21`: in data set [7], testing at 50 mg/kg gave an inhibition in vivo of 50%.

In turn, `CC(C)c1nc2ccccc2c(=O)n1-c1ccccc1` registered an inhibition in vivo at 50 mg/kg in [10] of 30%.

In data set [7], `CC(C)n1c(-c2ccccc2)nc(=O)c2ccccc21` returned an inhibition in vivo at 50 mg/kg of 50%.

Take `CC(C)c1nc(=O)c2ccccc2n1-c1ccc(F)cc1`: the ED30 in [5] came out at 76 mg/kg; in data set [6], 30 mg/kg. In data set [7], this molecule yielded an inhibition in vivo at 50 mg/kg of 50%.

For `CC(C)c1nc(=O)c2ccccc2n1-c1ccccc1Cl`, in data set [15], the inhibition in vivo at 50 mg/kg came to 20%.

In [16], `Cc1ccc2c(-c3ccccc3)nc(=O)n(C(C)C)c2c1` [PROQUAZONE] gave a No. of mice of 4. In addition, the “Ulcer Index” value in data set [17] came to 0.12. The molecule also displayed a Toxicity in data set [13] of 0. In addition, the ED30 in data set [5] came to 20 mg/kg; in data set [6], 10 mg/kg. In [7], this molecule displayed an inhibition in vivo at 50 mg/kg of 50%.

In the case of `CC(C)n1c(-c2ccccc2F)nc(=O)c2ccc(Cl)cc21`, in data set [1], the inhibition in vivo at 50 mg/kg was found to be 40%.

With `Cc1ccc2c(c1)c(=O)nc(C(C)C)n2-c1ccccc1`, testing at 50 mg/kg in [10] gave an inhibition in vivo of 30%.

As for `COc1ccc2c(c1)c(=O)nc(-c1ccccc1)n2C(C)C`, in data set [1], the inhibition in vivo at 50 mg/kg is 40%.

In [15], `COc1cccc2c1c(=O)nc(-c1ccccc1)n2C(C)C` showed an inhibition in vivo at 50 mg/kg of 20%.

The molecule `CC(C)n1c(-c2cccc(Cl)c2)nc(=O)c2ccccc21` gave an inhibition in vivo at 50 mg/kg in data set [7] of 50%.

`CC(C)c1nc(=O)c2ccc(N)cc2n1-c1ccccc1` displayed an inhibition in vivo at 50 mg/kg in [15] of 20%.

In turn, `Cc1ccccc1-n1c(C(C)C)nc(=O)c2ccccc21` had an inhibition in vivo at 50 mg/kg in [1] of 40%.

Take `CC(C)n1c(-c2ccccc2)nc(=O)c2cc(Cl)ccc21`: the inhibition in vivo at 50 mg/kg in [7] amounted to 50%.

`COc1ccc2c(c1)c(=O)nc(C(C)C)n2-c1ccccc1` came in with an inhibition in vivo at 50 mg/kg in [8] of no less than 51%.

In data set [15], `CC(C)c1nc(=O)c2ccccc2n1-c1ccccc1C(=O)O` gave an inhibition in vivo at 50 mg/kg of 20%.

In data set [15], `CC(C)n1c(-c2ccccc2)nc(=O)c2c(Cl)cccc21` yielded an inhibition in vivo at 50 mg/kg of 20%.

In the case of `CCOC(=O)C(C)c1nc(=O)c2ccccc2n1-c1ccccc1` (stereo not drawn), the inhibition in vivo at 50 mg/kg in data set [10] is 30%.

For `CC(C)n1c(-c2ccccc2F)nc(=O)c2cc(Cl)ccc21`, the inhibition in vivo at 50 mg/kg in data set [15] worked out at 20%.

Consider `O=c1nc(C2CC2)n(-c2ccc(F)cc2)c2ccccc12`, for which the inhibition in vivo at 50 mg/kg in [8] was no less than 51%.

`CC(C)n1c(-c2ccccc2F)nc(=O)c2ccccc21` yielded a No. of mice in [18] of 1. Also, the “Ulcer Index” value in data set [19] worked out at 0.1. Also, in data set [20], the Toxicity stood at 1. The ED30 in data set [5] was determined as 65 mg/kg; in data set [6] it was 20 mg/kg. The inhibition in vivo at 50 mg/kg in data set [8] was no less than 51%.

In turn, `CC(=O)c1ccc(-n2c(C(C)C)nc(=O)c3ccccc32)cc1` came in with an inhibition in vivo at 50 mg/kg in data set [10] of 30%.

In [1], `CC(C)c1nc(=O)c2ccccc2n1-c1ccc([N+](=O)[O-])cc1` returned an inhibition in vivo at 50 mg/kg of 40%.

`CC(C)n1c(-c2ccccc2)nc2ccccc2c1=O` had an inhibition in vivo at 50 mg/kg in data set [10] of 30%.

Turning to `CC(C)n1c(-c2ccc(F)cc2)nc(=O)c2ccccc21`, at 50 mg/kg the inhibition in vivo in data set [7] was 50%.

`CC(C)c1nc(=O)c2ccccc2n1-c1ccc(Cl)cc1`: in data set [8], the inhibition in vivo at 50 mg/kg is no less than 51%.

As for `CC(C)n1c(-c2ccccc2Cl)nc(=O)c2ccccc21`, the inhibition in vivo at 50 mg/kg in data set [7] was 50%.

Consider `CC(C)n1c(-c2ccc(F)cc2)nc(=O)c2ccc(Cl)cc21`, for which testing at 50 mg/kg in data set [10] gave an inhibition in vivo of 30%.
